Results taken from patent US7153869B2, “Substituted amino acids as erythropoietin mimetics” (priority 1998, dated 2006).
Read-outs that look alike come from different tables or passages of the source.

Biological target: T1, EBP-Ig (N-terminal 225 amino acids of the human EPO receptor joined to an Ig heavy chain) (Homo sapiens, UniProt P19235)
T1 construct: Ig heavy chain (fusion partner); made in house; host or cells: NSO cells (secreted into conditioned media)
T1 sequence (P19235 25-250 limits assumed): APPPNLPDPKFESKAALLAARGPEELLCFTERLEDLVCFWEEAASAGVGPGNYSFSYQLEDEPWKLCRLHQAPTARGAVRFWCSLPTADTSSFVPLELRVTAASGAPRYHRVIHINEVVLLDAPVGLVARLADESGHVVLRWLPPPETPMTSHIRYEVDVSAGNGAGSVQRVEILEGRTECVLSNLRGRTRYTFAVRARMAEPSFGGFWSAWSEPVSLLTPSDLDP
Assay: Inhibition of [125I]EPO binding to immobilized EBP-Ig (EPO binding protein-Ig), scintillation Flash plate competition assay
Conditions: for IC30 μM (Inhibition of EPO binding to EBP-Ig): 0–500 μM test compound; for % inh @ 50 μM (Inhibition of EPO binding to EBP-Ig): 50 μM test compound, average % inhibition

[1] = read-out: % inh @ 50 μM (Inhibition of EPO binding to EBP-Ig)
[2] = read-out: IC50, μM (Inhibition of EPO binding to EBP-Ig), 0.5 nM [125I]EPO, concentration reducing corrected total binding to 50%

## COC(=O)C(CCCCN)N(C/C=C/c1cccc(Oc2ccc(C(C)(C)C)cc2)c1)Cc1cccc(OCc2ccccc2)c1 (centres unmarked) [compound 139]
  IC50: 10 µM
0.5 nM [125I]EPO
  IC30 μM (Inhibition of EPO binding to EBP-Ig): 2 µM
[1]
  inhibition at 50 µM: 46%

## O=C(O)C(F)(F)F.O=C(O)[C@H](CO)NC/C=C/c1cccc(Oc2ccc(Cl)c(Cl)c2)c1 [compound 349]
50 μM compound, Table 20A
  EPO/EBP-Ig % inh @ 50 μM: 23%

## CC(C)(C)OC(=O)CC[C@H](NC/C=C/c1ccc(-c2ccccc2)cc1)C(=O)O [compound 340]
50 μM compound, Table 19A
  EPO/EBP-Ig % inh @ 50 μM: 14%

## COC(=O)[C@H](CCC(=O)O)NC/C=C/c1ccc(-c2ccccc2)cc1.O=C(O)C(F)(F)F [compound 327]
50 μM compound, Table 19A
  EPO/EBP-Ig % inh @ 50 μM: 11%

## O=C(O)CC(C(=O)O)N(Cc1cccc(NCc2ccccc2F)c1)Cc1cccc(Oc2ccccc2)c1 (centres unmarked) [compound 68]
Table 4, 50 μM
  EPO/EBP-Ig % inh @ 50 μM: −13%

## CCCCNC(=O)C(CCCCNC(=O)c1ccccc1OC)N(C/C=C/c1ccccc1)C/C=C/c1ccccc1 (centres unmarked) [compound 209]
50 μM compound, Table 10, 50 µM
  EPO/EBP-Ig % inh @ 50 μM: 25%

## CC(C)(C)c1ccc(Oc2cccc(/C=C/CN[C@@H](CO)C(=O)O)c2)cc1.O=C(O)C(F)(F)F [compound 351]
50 μM compound, Table 20A
  EPO/EBP-Ig % inh @ 50 μM: 29%

## O=C(O)CN(C/C=C/c1cccc(Oc2ccccc2)c1)C/C=C/c1cccc(Oc2ccccc2)c1 [compound 312]
0.5 nM [125I]EPO
  IC30 μM (Inhibition of EPO binding to EBP-Ig): 10 µM
[1]
  inhibition at 50 µM: 45%
read-out: EPO/EBP-Ig % inh @ 50 μM, 50 μM compound, Table 17A
  inhibition at 50 µM: 45%
[2]
  IC50: 85 µM

## O=C(O)CCC(C(=O)O)N(C/C=C/c1ccc(NC(=O)CC2(CC(=O)O)CCCC2)cc1)Cc1ccc(OCc2ccccc2)cc1 (centres unmarked) [compound 88]
Table 5, 50 μM
  EPO/EBP-Ig % inh @ 50 μM: 10.3%

## COC(=O)[C@H](CCCCNC(=O)OC(C)(C)C)NC/C=C/c1cccc(Oc2ccc(C(C)(C)C)cc2)c1 [compound 317]
50 μM compound, Table 18A
  EPO/EBP-Ig % inh @ 50 μM: 13%

## COC(=O)[C@H](COC(C)(C)C)NC/C=C/c1ccc(-c2ccccc2)cc1 [compound 353]
50 μM compound, Table 20A
  EPO/EBP-Ig % inh @ 50 μM: 24%

## COC(=O)C(CCCCNC(=O)OC(C)(C)C)N(C/C=C/c1cccc(Oc2ccccc2)c1)C/C=C/c1cccc(Oc2ccccc2)c1 (centres unmarked) [compound 180]
50 μM compound, Table 9
  EPO/EBP-Ig % inh @ 50 μM: −4%

## CC(C)(C)OC(=O)CCC(C(=O)O)N(C/C=C/c1ccc2ccccc2c1)C/C=C/c1ccc2ccccc2c1 (centres unmarked) [compound 97]
Table 6, 50 μM
  EPO/EBP-Ig % inh @ 50 μM: 14%

## O=C(O)C(F)(F)F.O=C(O)CC[C@H](NC/C=C/c1cccc(Oc2cccc(C(F)(F)F)c2)c1)C(=O)O [compound 330]
50 μM compound, Table 19A
  EPO/EBP-Ig % inh @ 50 μM: 12%

## CC(C)(C)OC(=O)CN(C/C=C/c1cccc(Oc2ccccc2)c1)C/C=C/c1cccc(Oc2ccccc2)c1 [compound 311]
50 μM compound, Table 17A
  EPO/EBP-Ig % inh @ 50 μM: 5.3%

## O=C(O)C(F)(F)F.O=C(O)[C@H](CO)N(C/C=C/c1cccc(Oc2ccc(Cl)c(Cl)c2)c1)C/C=C/c1cccc(Oc2ccc(Cl)c(Cl)c2)c1 [compound 307]
50 μM compound, Table 16A
  EPO/EBP-Ig % inh @ 50 μM: 25%

## COC(=O)[C@H](COC(C)(C)C)N(C/C=C/c1cccc(Oc2ccc(C(C)(C)C)cc2)c1)C/C=C/c1cccc(Oc2ccc(C(C)(C)C)cc2)c1 [compound 294]
50 μM compound, Table 16A
  EPO/EBP-Ig % inh @ 50 μM: 9%

## CCOC(=O)CCC(C(=O)OC)N(C/C=C/c1cccs1)C/C=C/c1cccs1 (centres unmarked) [compound 60]
Table 3, 50 μM
  EPO/EBP-Ig % inh @ 50 μM: 9%

## CC(C)(C)OC(=O)NCCCCC(C(=O)NCCCOCCOCCOCCCNC(=O)C(CCCCNC(=O)OC(C)(C)C)N(Cc1ccc(OCc2ccccc2)cc1)Cc1ccc(OCc2ccccc2)cc1)N(Cc1ccc(OCc2ccccc2)cc1)Cc1ccc(OCc2ccccc2)cc1 (centres unmarked) [compound 257]
50 μM compound, Table 13
  EPO/EBP-Ig % inh @ 50 μM: −26%

## COC(=O)C(CCCCNC(=O)OC(C)(C)C)N(C/C=C/c1cccc(Oc2ccc(C(C)(C)C)cc2)c1)C/C=C/c1cccc(Oc2ccc(C(C)(C)C)cc2)c1 (centres unmarked) [compound 181]
50 μM compound, Table 9
  EPO/EBP-Ig % inh @ 50 μM: −9%

## C[C@H](O)[C@H](NC/C=C/c1ccc(C(F)(F)F)cc1)C(=O)O.O=C(O)C(F)(F)F [compound 358]
50 μM compound
  EPO/EBP-Ig % inh @ 50 μM: 0%

## O=C(O)CCC(C(=O)O)N(C/C=C/c1ccc(NC(=O)c2ccc([N+](=O)[O-])cc2)cc1)Cc1ccc(OCc2ccccc2)cc1 (centres unmarked) [compound 91]
Table 5, 50 μM
  EPO/EBP-Ig % inh @ 50 μM: 19%

## O=C(O)CC(C(=O)O)N(CC=Cc1cccc(Oc2ccccc2)c1)CC=Cc1cccc(Oc2ccccc2)c1 (centres unmarked) [cpd 107, N,N-bis(3-Phenoxycinnamyl)Asp-OH]
0.5 nM [125I]EPO
  IC30 μM (Inhibition of EPO binding to EBP-Ig): 30 µM
  % inh @ 50 μM (Inhibition of EPO binding to EBP-Ig): 78%
Table 6, 50 μM
  EPO/EBP-Ig % inh @ 50 μM: 78%

## CC(C)(C)OC(=O)CCC(C(=O)OC(C)(C)C)N(C/C=C/c1cccc(Oc2cccc(C(F)(F)F)c2)c1)C/C=C/c1cccc(Oc2cccc(C(F)(F)F)c2)c1 (centres unmarked) [compound 103]
Table 6, 50 μM
  EPO/EBP-Ig % inh @ 50 μM: 17%

## O=C(O)CCC(=O)NCCCCC(C(=O)NCCCOCCCCOCCCNC(=O)C(CCCCNC(=O)CCC(=O)O)N(Cc1ccc(OCc2ccccc2)cc1)Cc1ccc(OCc2ccccc2)cc1)N(Cc1ccc(OCc2ccccc2)cc1)Cc1ccc(OCc2ccccc2)cc1 (centres unmarked) [compound 265]
0.5 nM [125I]EPO
  IC30 μM (Inhibition of EPO binding to EBP-Ig): 1 µM
  % inh @ 50 μM (Inhibition of EPO binding to EBP-Ig): 65%
50 μM compound, Table 13
  EPO/EBP-Ig % inh @ 50 μM: 65%
[2]
  IC50: 6 µM

## COC(=O)[C@H](COC(C)(C)C)N(C/C=C/c1cccc(Oc2ccc(Cl)c(Cl)c2)c1)C/C=C/c1cccc(Oc2ccc(Cl)c(Cl)c2)c1 [compound 293]
50 μM compound, Table 16A
  EPO/EBP-Ig % inh @ 50 μM: 14%

## CC(C)(C)c1ccc(Oc2cccc(/C=C/CN[C@@H](CCC(=O)O)C(=O)O)c2)cc1.O=C(O)C(F)(F)F [compound 331]
50 μM compound, Table 19A
  EPO/EBP-Ig % inh @ 50 μM: 18%

## Cc1ccc(C(=O)Nc2cccc(CN(Cc3cccc(Oc4ccccc4)c3)C(CCC(=O)O)C(=O)NCCOCCOCCNC(=O)C(CCC(=O)O)N(Cc3cccc(NC(=O)c4ccc(C)cc4)c3)Cc3cccc(Oc4ccccc4)c3)c2)cc1 (centres unmarked) [compound 249]
0.5 nM [125I]EPO
  IC30 μM (Inhibition of EPO binding to EBP-Ig): 7 µM
  % inh @ 50 μM (Inhibition of EPO binding to EBP-Ig): 72%
Table 11, 50 μM
  EPO/EBP-Ig % inh @ 50 μM: 72%
[2]
  IC50: 10 µM

## NCCCCC(C(=O)O)N(Cc1cccc(Oc2ccccc2)c1)C(=O)C=Cc1cccc(OCc2ccccc2)c1 (centres unmarked) [compound 286]
0.5 nM [125I]EPO
  IC30 μM (Inhibition of EPO binding to EBP-Ig): 35 µM
[1]
  inhibition at 50 µM: 46%
read-out: EPO/EBP-Ig % inh @ 50 μM, 50 μM compound, Table 15
  inhibition at 50 µM: 46%
[2]
  IC50: 65 µM

## COC(=O)[C@H](COC(C)(C)C)N(C/C=C/c1cccc(Oc2cccc(C(F)(F)F)c2)c1)C/C=C/c1cccc(Oc2cccc(C(F)(F)F)c2)c1 [compound 292]
50 μM compound, Table 16A
  EPO/EBP-Ig % inh @ 50 μM: 11%

## Cc1ccc(S(=O)(=O)Nc2cccc(CN(Cc3cccc(NS(=O)(=O)c4ccc(C)cc4)c3)C(CC(=O)O)C(=O)O)c2)cc1 (centres unmarked) [compound 65]
Table 4, 50 μM
  EPO/EBP-Ig % inh @ 50 μM: −7%

## O=C(O)CCC(=O)NCCCCC(C(=O)NCCOCCOCCNC(=O)C(CCCCNC(=O)CCC(=O)O)N(Cc1ccc(OCc2ccccc2)cc1)Cc1ccc(OCc2ccccc2)cc1)N(Cc1ccc(OCc2ccccc2)cc1)Cc1ccc(OCc2ccccc2)cc1 (centres unmarked) [compound 262]
0.5 nM [125I]EPO
  IC30 μM (Inhibition of EPO binding to EBP-Ig): 1 µM
[2]
  IC50: 1.5 µM

## COC(=O)C(CCC(=O)OC(C)(C)C)NCC=Cc1cccc(Oc2ccccc2)c1 (centres unmarked) [cpd 334, N-(3-phenoxycinnamyl)Glu(O-t-Bu)-OMe]
50 μM compound, Table 19A
  EPO/EBP-Ig % inh @ 50 μM: 6%

## Cc1ccc(C(=O)Nc2cccc(CN(Cc3cccc(NC(=O)c4ccc(C)cc4)c3)C(CC(=O)O)C(=O)O)c2)cc1 (centres unmarked) [cpd 64, N,N-bis(3-(4-Methylbenzoyl)aminobenzyl)Asp-OH]
Table 4, 50 μM
  EPO/EBP-Ig % inh @ 50 μM: −4%

## CC(=O)O.COC(=O)c1cccc(C=CCNC(CCCCNC(=O)OCc2ccccc2)C(=O)OC)c1 (centres unmarked) [compound 321]
0.5 nM [125I]EPO
  IC30 μM (Inhibition of EPO binding to EBP-Ig): 45 µM
  % inh @ 50 μM (Inhibition of EPO binding to EBP-Ig): 42%
50 μM compound, Table 18A
  EPO/EBP-Ig % inh @ 50 μM: 42%

## O=C(O)C(CO)N(CC=Cc1ccc(-c2ccccc2)cc1)CC=Cc1ccc(-c2ccccc2)cc1 (centres unmarked) [compound 305]
0.5 nM [125I]EPO
  IC30 μM (Inhibition of EPO binding to EBP-Ig): 35 µM
[1]
  inhibition at 50 µM: 48%
read-out: EPO/EBP-Ig % inh @ 50 μM, 50 μM compound, Table 16A
  inhibition at 50 µM: 48%
[2]
  IC50: 225 µM

## COC(=O)C(CCCCNC(=O)OC(C)(C)C)N(C/C=C/c1ccc([N+](=O)[O-])cc1)C/C=C/c1ccc([N+](=O)[O-])cc1 (centres unmarked) [compound 178]
50 μM compound, Table 9
  EPO/EBP-Ig % inh @ 50 μM: 36%
0.5 nM [125I]EPO
  % inh @ 50 μM (Inhibition of EPO binding to EBP-Ig): 36%

## CC(C)(C)OC(=O)CC(C(=O)OC(C)(C)C)N(C/C=C/c1cccc(Oc2ccccc2)c1)Cc1cccc(Oc2ccccc2)c1 (centres unmarked) [compound 76]
Table 5, 50 μM
  EPO/EBP-Ig % inh @ 50 μM: 25%

## COc1ccc(CCNC(=O)C(CCCCN)N(CC=Cc2ccccc2)CC=Cc2ccccc2)cc1 (centres unmarked) [compound 211]
0.5 nM [125I]EPO
  IC30 μM (Inhibition of EPO binding to EBP-Ig): 20 µM
[1]
  inhibition at 50 µM: 62%
read-out: EPO/EBP-Ig % inh @ 50 μM, 50 μM compound, Table 10
  inhibition at 50 µM: 62%
[2]
  IC50: 65 µM
